For one compound, IC50 results are on record in patent US7482351B2, “4-pyrimidineamine compounds and their uses as anti-proliferative agents” (Rigel Pharmaceuticals, Inc., priority 2004, dated 2009).

What is called IC50 is the concentration that gives 50% inhibition.

Holding throughout (type): cell-based
Experiment [1] concerns A549 (lung carcinoma) cells. Briefly: in vitro inhibition of A549 cells. As for the experimental part:
(§1) Various exemplary 5-fluoro-4-pyrmidineamine compounds (illustrated in TABLE 1, infra) were synthesized as described herein and tested for their ability to inhibit A549 (lung carcinoma), DLD-1 (colorectal adenocarcinoma), H1299 (non small cell lung carcinoma), HCT116 (colorectal carcinoma), HELA (cervical adenocarcinoma) and/or U2OS (bone osterosarcoma) cells in vitro. […] A blank indicates the particular compound was […].

The subject of experiment [2] is H1299 (non small cell lung carcinoma) cells. Briefly: in vitro inhibition of H1299 cells. The method, then: as §1
Experiment [3] deals with DLD-1 (colorectal adenocarcinoma) cells. Kind of experiment: in vitro inhibition of DLD-1 cells. As to conditions: DLD-1 (colorectal adenocarcinoma) cells in vitro. As for the experimental part: as §1
Experiment [4] has as its system HCT116 (colorectal carcinoma) cells. Kind of experiment: in vitro inhibition of HCT116 cells. The method, then:
as §1

Experiment [5] has as its system HELA (cervical adenocarcinoma) cells. Kind of experiment: in vitro inhibition of HELA cells. As for the experimental part:
as §1

Experiment [6] relates to U2OS (bone osterosarcoma) cells. Briefly: in vitro inhibition of U2OS cells. The method, then: as §1
In experiment [7] the test system is A549. Briefly: 9-point anti-proliferation assay, A549. As to conditions: A549, 9-point anti-proliferation assay.
Experiment [8] has as its system Colo205 (colorectal adenocarcinoma). Briefly: 9-point anti-proliferation assay, Colo205. As to conditions: Colo205, 9-point anti-proliferation assay.
Experiment [9] relates to HCT116. Briefly: 9-point anti-proliferation assay, HCT116. As to conditions: HCT116, 9-point anti-proliferation assay.
The test system of experiment [10] is Miapaca2 (pancreatic carcinoma). Kind of experiment: 9-point anti-proliferation assay, Miapaca2. The conditions noted are these: Miapaca2, 9-point anti-proliferation assay.

The structures appear in SMILES notation.

For the compound `CN(c1ccc2c(c1)OCCO2)c1nc(-c2ccsc2)ncc1F` [Compound 25, N4-(3,4-Ethylenedioxyphenyl)-5-fluoro-N-4-methyl-2-(3-thienyl)-4-pyrimidineamine], the IC50 in experiment [1], in [2], in experiment [3], in [4], in experiment [5] and in experiment [6] was no more than 1000 nM each time. The IC50 in experiment [7], in experiment [8], in experiment [9] and in experiment [10] was less than 1000 nM throughout.
